Experimental data: PMC3368886, “ATPase Cycle and DNA Unwinding Kinetics of RecG Helicase” (PLoS ONE, 2012)

Tests used:
Type in all cases: biochemical
[1] = molecular target: T1, RecG (Thermotoga maritima, UniProt Q9WY48); assay: Steady-state ATPase rate measurements with phosphate biosensor MDCC-PBP; details: for K m / k cat: 20°C, 10 nM RecG, 500 nM DNA junction (A40:B40)
T1 construct: made in house
T1 sequence (Q9WY48 1-780): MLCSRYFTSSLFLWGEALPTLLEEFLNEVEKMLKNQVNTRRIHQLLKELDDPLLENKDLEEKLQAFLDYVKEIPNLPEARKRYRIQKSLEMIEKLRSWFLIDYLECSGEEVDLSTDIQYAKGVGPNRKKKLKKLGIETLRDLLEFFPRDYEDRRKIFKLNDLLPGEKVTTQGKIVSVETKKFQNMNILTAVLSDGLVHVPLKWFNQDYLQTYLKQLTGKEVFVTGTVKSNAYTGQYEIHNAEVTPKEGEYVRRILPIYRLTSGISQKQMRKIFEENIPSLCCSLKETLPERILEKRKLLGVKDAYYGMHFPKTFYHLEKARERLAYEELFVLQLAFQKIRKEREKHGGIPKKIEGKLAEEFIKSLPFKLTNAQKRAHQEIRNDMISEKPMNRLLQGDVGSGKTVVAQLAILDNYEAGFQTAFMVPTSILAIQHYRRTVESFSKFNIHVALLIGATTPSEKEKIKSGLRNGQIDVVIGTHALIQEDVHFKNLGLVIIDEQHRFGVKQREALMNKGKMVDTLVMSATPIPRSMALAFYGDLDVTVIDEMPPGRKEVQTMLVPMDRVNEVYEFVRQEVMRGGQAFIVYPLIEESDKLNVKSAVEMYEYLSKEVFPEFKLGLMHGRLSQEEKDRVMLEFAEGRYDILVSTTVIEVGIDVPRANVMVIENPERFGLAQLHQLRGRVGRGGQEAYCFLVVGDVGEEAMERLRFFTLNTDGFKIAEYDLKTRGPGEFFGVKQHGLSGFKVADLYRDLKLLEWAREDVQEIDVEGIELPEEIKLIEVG
Source text: Steady-state measurements were made to gain an overall assessment of the reaction and the affinities of various nucleotides before investigating the individual steps in the ATPase cycle. A two-strand DNA junction, which contains two 20-bp regions of complementary and non-complementary sequences (A40:B40 Figure 1 and Table S1), was used in all these measurements. This forms a Y-shape structure and RecG translocates one single-stranded arm, but then remains bound to the end of the junction still hydrolyzing ATP [10].
All reactions with RecG and DNA were done at 20°C in a buffer containing 50 mM Tris⋅acetate (pH 8.0), 30 mM potassium acetate, 3 mM magnesium acetate and 1 mM DTT. ATPase measurements using MDCC-PBP were taken in the presence of a Pi mop, as described above. Steady-state ATPase measurements were taken in a solution (60 µl) at 20°C, containing 10 nM RecG, 500 nM DNA junction (A40∶B40, see Table S1) and 10 µM MDCC-PBP with varying nucleotide concentrations as substrate or inhibitor [23].

[2] = molecular target: T1, RecG; assay: Phosphate-water oxygen exchange during hydrolysis; details: for k +3 /k −2: γ-18O3 nucleotide, 25°C
Source text: In order to get information about the reverse of cleavage step 2 (scheme in Figure 2A), phosphate-water oxygen exchange measurements were done using (γ-^18O3)mantATP. Intermediate exchange can occur between terminal oxygens of the nucleotide and water during hydrolysis, giving information about the value of k +3 /k −2, as previously described. In this case, (γ-^18O3)mantATP was used as substrate and partial hydrolysis occurred in the presence of RecG⋅DNA, as described in the materials and methods section. The Pi had very similar distribution of oxygen-18 as with (γ-^18O3)mantATP, consistent with essentially little reversal of the cleavage step (k +3 /k −2≥9). This is consistent with a rapid release of Pi.
For intermediate exchange during ATP hydrolysis, 0.5 µM RecG and 1 mM (γ-^18O3)ATP or (γ-^18O3)mantATP were incubated for 10 min (+1 µM DNA A40∶B40, Table S1) or 20 min (- DNA) at 25°C in a volume of 100 µl in the buffer described below. Pi was analyzed for distribution of different ^18O-labeled species on a mass spectrometer as described previously, [37] except that during purification, the ^18O-labeled Pi was detected by MDCC-PBP, rather than radioactive tracers.
Supplementary file pone.0038270.s005.pdf: Table S2 Oxygen exchange during ATP or mantATP hydrolysis by RecG: distributions of oxygen-18 in the Pi product. Experiments were performed as described in Materials and Methods. The data were corrected for isotopic enrichment of the starting nucleotide, 93% for (γ-^18O3)mantATP and 98% for (γ-^18O3) ATP. […] Each distribution is the average of three mass spectral assays. Thus the distributions are for the product Pi as though the starting enrichment was 100%. In all cases there was very little oxygen exchange as shown by the large peak of (^18O3)Pi, in which all three γ-oxygens of ATP are retained. The distributions were then used to compute the ratio of rate constants for Pi release (k +3) and on-enzyme ATP resynthesis (k −2) as in Figure 2 [14], [37].

[3] = molecular target: T1, RecG; assay: mantATP cleavage (acid quench) and Pi release in the absence of DNA
Method: As done for the RecG⋅DNA complex, measurements were also taken with an excess of RecG over mantATP (Figure S3B). A large, relative rapid, increase in mant fluorescence was observed followed by a small gradual increase. The rate constants are consistent with those at excess mantATP. Under the same conditions of excess RecG over mantATP, mantATP cleavage (acid quench) and Pi release were measured (Figure S3B). […] The cleavage step rate constant was 4×10^−4 s^−1, ∼10^3 slower than in the presence of DNA. […] The cleavage step was greatly stimulated by DNA.
Supplementary file pone.0038270.s003.tif: Figure S3 Kinetic measurements in the absence of DNA. (A) Association kinetics with mantATP. Dependence of the observed rate constants on mantATP concentration from mixing 0.5 µM RecG with excess mantATP under the same conditions as Figure 3. Points shown are typically an average of three individual measurements. The best linear fit gives a slope of 0.4 (±0.15) µM^−1 s^−1 and intercept 1.7 (±0.6) s^−1. (B) Fluorescence trace upon mixing 2.5 µM RecG with 0.5 µM mantATP under the conditions of Figure 4. […] Note that as the fluorescence slowly increases beyond the time course, it was not possible to calibrate the ordinate. […] Pi release kinetics (continuous line) were measured for the same mixture containing 10 µM MDCC-PBP. […]

SMILES	K m [1]	k cat [1]	(18O1)Pi in product Pi ([2]; DNA present)	(18O2)Pi in product Pi ([2]; DNA present)	(18O3)Pi in product Pi ([2]; DNA present)	k +3 /k −2 ([2]; DNA present (A40∶B40))	(18O1)Pi in product Pi ([2]; no DNA)	(18O2)Pi in product Pi ([2]; no DNA)	(18O3)Pi in product Pi ([2]; no DNA)	k +3 /k −2 ([2]; no DNA)	lower ATPase activity than ATP ([1]; mantATP vs ATP)	cleavage step rate constant ([3]; absence of DNA, excess RecG over mantATP)	cleavage slower than in the presence of DNA ([3]; absence vs presence of DNA)
Nc1ncnc2c1ncn2[C@@H]1O[C@H](COP(=O)(O)OP(=O)(O)OP(=O)(O)O)[C@@H](O)[C@H]1O [ATP]	9 (±2) µM	8.3 (±1.7) s^−1	2.8%	2.3%	94.9%	18	6.1%	4.0%	89.9%	9.0	–	–	–
CNc1ccccc1C(=O)O[C@H]1[C@@H](O)[C@H](n2cnc3c(N)ncnc32)O[C@@H]1COP(=O)(O)OP(=O)(O)OP(=O)(O)O [mantATP, 2′(3′)-O-(N-methylanthraniloyl)ATP]	1.9 (±0.6) µM	0.3 (±0.1) s^−1	0.4%	7.5%	92.1%	8.7	0.4%	7.0%	92.6%	9.5	30 fold	0.0004 s⁻¹	~10^3
